Data taken from patent US6699681B2, “Endothelin converting enzymes and the amyloid β peptide” (Mayo Foundation for Medical Education and Research, priority 2000, dated 2004).
“Also recorded” adds a separate entry of the source.

Key:
H4 neuroglioma cells [1] = test: Extracellular Aβ after treatment of H4 cells with metalloprotease inhibitors; assay type: cell-based, human
Experimental: Human and guinea pig Aβ40 or Aβ42 was measured in plasma by sandwich ELISA as previously described (Suzuki et al., 1994, Science, 264:1336-1340) using the BAN-50/BA-27 or BAN-50/BC-05 antibody systems, respectively (Takeda; Japan). Hamster Aβ40- or Aβ42-derived from CHO cells was measured using the BNT-77/BA-27 or BNT-77/BC-05 antibody systems, respectively. Aβ concentration in samples was determined by comparison to synthetic Aβ40 or Aβ42 standards (Bachem, Switzerland). Data was obtained from triplicate wells.
In particular, the sandwich ELISA used herein was performed as follows: 96-well microtiter plates were coated overnight at 4° C. with 100 μl of a 5 μg/ml dilution of primary antibody in sodium carbonate coating buffer (SCCB; 0.1 M Na2CO3, pH 9.6). Plates were blocked overnight at 4° C. with 300 μl of BLOCKAGE Solution (PBS+1.0% BLOCKAGE (Snow Brand Milk Products, Japan), 0.05% NaN3, pH 7.4). Samples for analysis and synthetic Aβ standards (Bachem, Switzerland) were diluted in buffer EC (0.02 M NaH2PO4, 0.002 M EDTA, 0.4 M NaCl, 0.2% BSA, 0.05% CHAPS, 0.04% BLOCKAGE, 0.05% NaN3, pH 7.0) and allowed to incubate on the plates overnight at 4° C. Plates were washed twice with PBS (8 mM Na2HPO4, 1.5 mM KH2PO4, 139 mM NaCl, 2.7 mM KCl, pH 7.4) and 100 μl of secondary antibody directly coupled to HRP (EZ-LINK™ Plus Activated Peroxidase kit (contents of kit: peroxidase, 5 M sodium cyanoborohydride solution (NaBH3CN), quenching buffer (3 M ethanolamine, pH 9.0), BupH™ phosphate buffered saline, Buph™ carbonate-bicarbonate buffer), according to manufacturers directions; Pierce Chemical Co., Rockford, Ill.) was allowed to bind either 4 hrs at room temperature or overnight at 4° C. Plates were then washed twice with PBS containing 0.05% Tween 20 followed by two additional washes in PBS. Detection was performed using TMB (3,3′,5,5′-tetramethyl-benzidine) as an HRP substrate according to the manufacturer's specifications (Kirkegaard & Perry Laboratories (KPL), Gaithersburg, Md.) and the reaction stopped by the addition of 100 μl of 1N H3PO4. Plates were read at 450 nm in a SpectraMax Plus spectrophotometer (Molecular Devices; Sunnyvale, Calif.) and analyzed by SOFTmax® PRO software. Aβ40 or Aβ42 were quantitated by comparison with the values obtained for each synthetic Aβ standard from the same plate.
Cells were passaged into 6-well plates one day prior to treatment and grown to confluence. […] After treatment, the culture medium was harvested, spun at 14,000 xg, and the supernatant analyzed for Aβ40 or Aβ42 using sandwich ELISA and for secreted APP using Western blot. […] Bound antibody was detected by incubation with the appropriate HRP-linked secondary antibody (Amersham, Uppsala, Sweden) using ECL™ Western blotting reagents (Amersham) followed by exposure to X-ray film. […]

H4 cells = test: Removal of synthetic Aβ spiked into culture medium of H4 cells; assay type: cell-based, human; conditions: incubated 6 or 24 hrs, presence vs absence of phosphoramidon
Experimental: Human and guinea pig Aβ40 or Aβ42 was measured in plasma by sandwich ELISA as previously described (Suzuki et al., 1994, Science, 264:1336-1340) using the BAN-50/BA-27 or BAN-50/BC-05 antibody systems, respectively (Takeda; Japan). Hamster Aβ40- or Aβ42-derived from CHO cells was measured using the BNT-77/BA-27 or BNT-77/BC-05 antibody systems, respectively. Aβ concentration in samples was determined by comparison to synthetic Aβ40 or Aβ42 standards (Bachem, Switzerland). Data was obtained from triplicate wells. […] Plates were read at 450 nm in a SpectraMax Plus spectrophotometer (Molecular Devices; Sunnyvale, Calif.) and analyzed by SOFTmax® PRO software. Aβ40 or Aβ42 were quantitated by comparison with the values obtained for each synthetic Aβ standard from the same plate. To exclude the possibility that the phosphoramidon-induced effect was due to inhibition of extracellular degradation and/or internalization of Aβ by H4 cells, synthetic Aβ was spiked into the culture medium, incubated for 6 or 24 hrs, and the amount of synthetic Aβ remaining in the medium was determined by sandwich ELISA. […] Intracellular Aβ has not been convincingly detected in H4 cells, presumably due to rapid secretion of the peptide.

neuronal cell lines = conditions: previously shown; cited from earlier work
H4 neuroglioma cells [2] = conditions: reported; cited from earlier work

CC(C)C[C@H](NP(=O)(O)O[C@@H]1O[C@@H](C)[C@H](O)[C@@H](O)[C@H]1O)C(=O)N[C@@H](Cc1c[nH]c2ccccc12)C(=O)O [phosphoramidon]
Aβ accumulation in parallel culture wells without synthetic Aβ (H4 neuroglioma cells [1]; H4 cells, parallel to the spiking experiment): promoting Aβ accumulation | extracellular Aβ accumulation (H4 neuroglioma cells [1]; H4 neuroglioma cells, thiorphan or captopril at concentrations greater than 1000-times the reported IC50 for the target enzymes): significant elevation | removal of synthetic Aβ spiked into the culture medium (H4 cells): removed equally; also recorded: not affected | increase in the concentration of Aβ40 and Aβ42 in the conditioned medium (neuronal cell lines): 2- to 3 fold | extracellular Aβ concentration (H4 neuroglioma cells [2]): significant increase
